Values of other authors in patent publication US20070184116A1, “Pharmaceutical formulation containing unmilled flutamide” (priority 2004, published 2007).

For `CC(C)C(=O)Nc1ccc([N+](=O)[O-])c(C(F)(F)F)c1` [Flutamide, 2-methyl-N-[4-nitro-3-(trifluoromethyl)phenyl]propanamide], the “solubility in acid medium” value (acid medium, for example 0.1% hydrochloric acid (pH corresponds to gastric juice)) is listed as “virtually insoluble” and the solubility in water (water) is listed as “virtually insoluble”.
